Columns and labels:
[1] = Round table sweetness evaluation by test panelists (SEV determination against sucrose references); details: samples made to equal sweet 10 SEV in neutral pH water, room temperature; references 4-14% sucrose
Protocol: Round table evaluations were performed with test panelists. Equal sweet 10 SEV concentrations in neutral pH water were made for allulose, AceK and fructose, as well as a composition comprising allulose, AceK and fructose. The components of the test compositions are described in the below tables. The mixed compositions were calculated using the Beidler mixture equation for the sweeteners. The Beidler mixture equation for sweeteners is as follows: […]
The concentration of each component in the mixture in ppm is divided by SEV (c/R) and is plotted against concentration, c. The slope of the linear regression is […]. The y-intercept of the linear regression multiplied by Rmax is the half-maximal sweetness concentration, 1/K. Rmax and 1/K are the two parameters used in the Beidler equation
The equal-molar mixture was tested against reference samples for the panelists to determine SEV values. […] The test samples were served in 2 ounce soufflé cups (approximately 60 ml) coded with 3-digit codes at room temperature. A two minute wait period between samples was enforced. Water and unsalted crackers was available for the panelists to clear their palates before and during testing. EyeQuestion was used for ballot development and recording of results. Results were collected in EyeQuestion for calculating approximate SEV level of each test sample.
The test products analyzed in this experiment are described below in Table 1.

[2] = % of the sweetness of sucrose; cited from earlier work

Row | Compound | Mean sucrose equivalent value (SEV) [1] | Median sucrose equivalent value (SEV) [1] | Sweetness relative to sucrose [2]
1 | O=C(CO)C(O)C(O)C(O)CO (stereo not shown) [Allulose, allulose] | 10.14 | 10 | around 70%
2 | CC1=CC(=O)[N-]S(=O)(=O)O1.[K+] [AceK, potassium salt of 6-methyl-1,2,3-oxathiazine-4(3H)-one 2,2-dioxide] | 9.286 | 8 | –
3 | O=C(CO)[C@@H](O)[C@H](O)[C@H](O)CO [Fructose, fructose] | 10.14 | 10 | –

Reference: patent US20160050958A1, “IMPROVED SWEETENER” (TATE & LYLE INGREDIENTS AMERICAS LLC, priority 2013, published 2016)
